Assay [1] concerns the target T1, 5-HT M-receptor (Oryctolagus cuniculus, UniProt A0A5F9C9J3).
T1 construct: determining their pA2 values in the isolated rabbit heart; from tissue; host or cells: isolated rabbit heart
T1 sequence (A0A5F9C9J3 1-494): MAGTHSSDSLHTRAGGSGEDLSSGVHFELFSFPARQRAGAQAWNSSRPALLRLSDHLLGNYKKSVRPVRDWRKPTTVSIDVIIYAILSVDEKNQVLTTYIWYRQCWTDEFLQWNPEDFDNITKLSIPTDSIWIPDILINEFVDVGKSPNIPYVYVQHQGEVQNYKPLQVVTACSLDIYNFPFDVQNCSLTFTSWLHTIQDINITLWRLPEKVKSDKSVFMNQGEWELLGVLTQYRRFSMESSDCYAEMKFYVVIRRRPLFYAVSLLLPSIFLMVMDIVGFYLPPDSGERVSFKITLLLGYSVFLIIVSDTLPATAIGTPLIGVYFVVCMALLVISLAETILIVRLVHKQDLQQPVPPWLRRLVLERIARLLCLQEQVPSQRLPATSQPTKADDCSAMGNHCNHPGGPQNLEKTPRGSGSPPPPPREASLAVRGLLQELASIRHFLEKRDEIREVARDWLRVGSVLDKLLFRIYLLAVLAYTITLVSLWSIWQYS
To be noted: potency as 5-HT M-receptor antagonist; values reported by Fozard et al, Eur. J. Pharmacol. 59(1979) and 49(1978); cited from earlier work.

Assay [2] concerns the target T1, 5-HT M-receptor. The experiment in a line: pA2 against 5-HT in the isolated rabbit heart. As to the method: The activity of the compounds against 5-HT can be assessed by determining their pA2 values in the isolated rabbit heart as described by Fozard et at Europ. J. Pharmacol. 59, 195-210 (1979). In the method described the molar concentration of antagonist which reduces the effects of twice the ED50 of 5-HT to that of the ED50 in the absence of antagonist is determined. The pA2 value is the negative logarithm of said molar concentrations.

Where [3] appears, read: potency as 5-HT M-receptor antagonist, tests mentioned in the background section, read-out: pA2 (converted).

Where two headings read alike, the source gives them in different places.

The term pA2 denotes a measure of antagonist potency on a negative log scale. With `CN1[C@@H]2CC[C@H]1C[C@H](OC(=O)c1ccccc1)C2` [pseudotropyl benzoate], the pA2 in assay [1] is 7.0.
In the case of `COc1cc(C(=O)O[C@@H]2C[C@H]3CC[C@@H](C2)N3C)cc(OC)c1OC` [pseudotropyl-3,4,5-trimethoxybenzoate], the Kb in assay [2] (setting [3]) is 2000 nM.
As to `COc1cc(OC)cc(C(=O)O[C@@H]2C[C@H]3CC[C@@H](C2)N3C)c1` [pseudotropyl-3,5-dimethoxybenzoate], in assay [2] (setting [3]), the Kb is 251 nM.
With `CN1[C@@H]2CC[C@H]1C[C@@H](OC(=O)c1ccccc1)C2` [benzoyltropine], the pA2 in assay [1] is 7.2.
`CN1[C@@H]2CC[C@H]1C[C@H](OC(=O)c1cc(Cl)cc(Cl)c1)C2` [Example 1, Pseudotropyl 3,5-Dichlorobenzoate (i.e. 3,5-Dichlorobenzoic Acid Exo-8-Methyl-8-Azabicyclo[3,2,1]Oct-3-Yl Ester)]: in assay [2] (isolated rabbit heart, antagonism of 5-HT, read-out: pA2 (5-HT) (converted)), the Kb was 2.51 nM.

(Values after patent US4486441A, “Pseudotropyl halogeno-benzoates and their use in migraine treatment” (Merrell Toraude Et Compagnie, priority 1982, dated 1984).)
